Read-outs that look alike come from different tables or passages of the source.
Experiments:
H23 cells = test: Zebrafish larvae H23 xenotransplant; format: in vivo; conditions: 72 h, 12 µM
H358 = test: Cell proliferation assay, 2D (IncuCyte live cell imaging); format: cell-based; conditions: Homo sapiens, NCI-H358
Protocol: (§1) The cells grown in 2D cultures were treated with various concentrations of the drug, and the effect on cell proliferation was determined in real time using the live cell proliferation assay (IncuCyte, Essen Bioscience, Inc.) as described in the methods.
(§2) Cell proliferation and apoptosis assay: Cell proliferation assays were performed using cell lines stably transfected with NucLight Red Lentivirus (Essen BioScience) to accurately visualize and count the nucleus of a single cell. Cells were seeded on a 96-well plate and allowed to adhere for 24 h. Test compounds were added at indicated concentrations. Caspase-3/7 Green Apoptosis Reagent (Essen BioScience) was also added as a green fluorescent indicator of caspase3/7-mediated apoptotic activity. To monitor cell proliferation and apoptosis over time, the plate was placed in the IncuCyte S3 Live Cell Imaging System (Essen BioScience) and images were acquired every 2 hours. Data analysis was generated by the IncuCyte software using a red fluorescence mask to accurately count each cell nucleus and a green fluorescence mask to measure apoptosis over time. 3D spheroid assay 3D spheroid experiments were performed using cell lines stably transfected with NucLight Red Lentivirus (Essen BioScience) to visualize red fluorescence as an indicator of cell viability. Cells were seeded on a 96-well ultra-low attachment plate and allowed to form spheroids overnight. Drug treatment was added as indicated along with Cytotox Green Reagent (Essen BioScience), used as a green fluorescence indicator of cell death due to loss of cell membrane integrity. To monitor cell proliferation and apoptosis over time, the plate was placed in the IncuCyte S3 Live Cell Imaging System (Essen BioScience) and images were acquired every 2 hours. Data analysis was generated by the IncuCyte software using a red fluorescence mask to accurately measure intensity and area of red fluorescence, indicating spheroid viability and a green fluorescence mask, indicating cell death. Cell cycle analysis.

H23 = test: as above; format: cell-based
Protocol: as §1, §2

[1] = test system: WNT2, CFTR and CCL2 expression in H23 cells; test: qPCR validation of RNAseq; format: cell-based
Protocol: The drug treatment what initiated at dose of 1 μM which was finally raised up to 7.5 μM. […] Further, using qPCR assay we validated the RNAseq data and observed more than 40 fold induction in expression of various genes such as WNT2, CFTR and CCl2. (FIGS. 17D-17F). Further the analysis also identified activation of MYC and E2F Target Hall Mark Pathways which may help H23 cells in withstanding drug toxicity (data not shown).
Quantitative real-time PCR and RNAseq: Quantitative real-time PCR (qPCR) reactions were performed using TaqMan Universal PCR Master Mix (Thermo Fisher Scientific, Waltham, Mass.) and analyzed by the Quant Studio? Real-time PCR system (Life Technologies, Grand Island, N.Y.). Total RNA isolation and on-column DNase digestion from cells were performed basing on the manufacturer's protocol RNeasy Plus Mini Kit (Qiagen Cat #: 74134). 1 ug of RNA was used to synthesize the cDNA according to the one step cDNA synthesis kit from QuantaBio (Cat #: 101414-106). TaqMan probes were purchased from ThermoFisher (Waltham, Mass.). The mRNA expression was analyzed using multiplex PCR for the gene of interest and GAPDH as a reference using two independent detection dyes FAM probes and VIC probes respectively. Relative mRNA expression was normalized to GAPDH signals and calculated using the delta Ct method.

[2] = test system: ITGB4-overexpressing H23 cells; test: Cell proliferation, ITGB4-overexpressing cells; format: cell-based; conditions: Homo sapiens, NCI-H23
H23 spheroids = test: 3D spheroid assay; format: cell-based
Protocol: (§3) The activation of apoptosis is marked with the increase in green fluorescence intensity.
(§4) To determine the sensitivities of the same cells in 3D, mKate expressing cells were used to generate spheroids. Spheroids were monitored in real time using the IncuCyte live cell imaging system (FIG. 1B).
as §2

H358 spheroids = test: 3D spheroid assay; format: cell-based
Protocol: as §3, §4, §2

SW1573 spheroids = test: 3D spheroid assay; format: cell-based
Protocol: as §3, §4, §2

SW1573 cells [3] = test: Zebrafish larvae SW1573 xenotransplant; format: in vivo
Protocol: The inventors microinjected SW1573 cells into the perivitelline space of 48 hour post-fertilization (hpf) zebrafish larvae.

SW1573 cells [4] = test: Protein array of global phosphorylation changes; format: cell-based; conditions: IC50 concentration; 72 hours
Protocol: The phosphorylation changes were analyzed employing the AVM BioMed protein array platform.

C=CC(=O)N1CCN(c2nc(=O)n(-c3c(C)ccnc3C(C)C)c3nc(-c4c(O)cccc4F)c(F)cc23)[C@@H](C)C1 [sotorasib]
reduction of tumor growth (median) (H23 cells): about 80%
IC50 (H358): 63 nM
inhibition at 0.61 µM (H358; H358, 0.61 μM): ~60%
IC50 (H358; H358, 72 hours, Example 6, read-out: IC50, cell proliferation): 130 nM
IC50 (H358; H358, Example 1, FIG. 14C-14D, read-out: IC50, cell proliferation): 800 nM
cell count (H23; H23, 1-3 μM, 24 h, start 9,000, control 15,000): 12,000
IC50 (H23; Homo sapiens, NCI-H23, 72 h, H23, 72 hours, Example 6): 3000 nM
IC50 (H23; Homo sapiens, NCI-H23, H23, Example 1, FIG. 14C-14D): 3200 nM
inhibition at 0.3 µM (H23; Homo sapiens, NCI-H23, H23, 0.3 μM): ~20%
inhibition at 10 µM (H23; Homo sapiens, NCI-H23, H23, 72 hours, read-out: inhibition of proliferation / cell growth): ~80%
inhibition at 5 µM (H23; Homo sapiens, NCI-H23, H23 parental cells, 5 μM, FIG. 4B, read-out: inhibition of proliferation): 50%
inhibition at 10 µM (H23; Homo sapiens, NCI-H23, H23 parental cells, FIG. 4B, read-out: inhibition of proliferation): 70%
induction in expression of WNT2, CFTR and CCL2 (qPCR) [1]: more than 40 fold
inhibition at 10 µM [2]: 5%
drop in spheroid red intensity (H23 spheroids; H23, 0.3 μM): about 40%
inhibition at 0.3 µM (H23 spheroids; H23, 0.3 μM, read-out: inhibition of spheroid area): 70%
spheroid red intensity dropped to (H23 spheroids; H23, 10 μM): 80%
IC50 (H23 spheroids; H23 spheroid, read-out: IC50 in cell line derived spheroid): 12300 nM
drop in spheroid red intensity (H358 spheroids; H358, 0.3 μM): about 80%
inhibition at 0.3 µM (H358 spheroids; Homo sapiens, NCI-H358, H358, 0.3 μM, read-out: inhibition of spheroid area): 90%
IC50 (H358 spheroids; Homo sapiens, NCI-H358, H358 spheroid, read-out: IC50 in cell line derived spheroid): 2.2 nM
inhibition at 0.3 µM (SW1573 spheroids; Homo sapiens, SW1573, 0.3 μM, read-out: inhibition of spheroid area): 30%
inhibition at 10 µM (SW1573 spheroids; Homo sapiens, SW1573, 10 μM, read-out: inhibition of spheroid area / reduction in spheroid growth): ~40%
IC50 (SW1573 spheroids; Homo sapiens, SW1573 spheroid, read-out: IC50 in cell line derived spheroid): 12600 nM
spheroid red intensity dropped to (SW1573 spheroids; SW1573, 10 μM): 70%
most effective dose, drug alone (obliterates SW1573 cells) (SW1573 cells [3]): 12 µM
toxic dose, drug alone (SW1573 cells [3]): 18 µM
number of proteins with phosphorylation changes unique to the treatment (SW1573 cells [4]): 1482 proteins
number of proteins with significant phosphorylation changes (SW1573 cells [4]): 1764 proteins

Source: patent US20230285498A1, “TREATMENTS FOR CANCERS HAVING KRAS MUTATIONS” (City of Hope, priority 2020, published 2023)
